Measured values reported in patent publication US20040115822A1, “Methods of measuring the dissolution rate of an analyte in a non-aqueous liquid composition” (priority 2002, published 2004).

Assay: Solubility of CCFA as a function of pH
Assay type: physicochemical
Details: below pH 5
Description: In this example, CCFA was employed as the analyte. The solubility of CCFA varies as a function of pH.

solubility of CCFA: relatively insoluble
SMILES: CO/N=C(\C(=O)N[C@@H]1C(=O)N2C(C(=O)O)=C(CSC(=O)c3ccco3)CS[C@H]12)c1csc(N)n1 [CCFA, ceftiofur crystalline free acid]
